Data on 96 molecules can be found in the CATMoS acute toxicity set (Mansouri et al. 2021).

Values joined by “and” are separate entries in the source; they are usually repeats but may differ in a detail not shown here. Identical values can stand only once.

What is called LD50 is the dose at which mortality reaches 50%. A higher LD50 goes with lower toxicity.

The series in a line: rat acute oral toxicity. Particulars: in vivo.

`CCOC(=O)CC(SP(=S)(OC)OC)C(=O)OCC` (stereo unspecified) displayed an LD50 of 1190 mg/kg. The same measure for `Cc1cccc([N+](=O)[O-])c1`: 1070 mg/kg; for `CC1(C)CC(NCCCCCCNC2CC(C)(C)NC(C)(C)C2)CC(C)(C)N1`: 820 mg/kg; for `C=CCN=C=S`: 112 mg/kg. For `CN(C)CCN(C)C` the value was 268 mg/kg; for `CC1=C(C(=O)Nc2ccccc2)S(=O)(=O)CCO1`, 1630 mg/kg. As to `CCC(CC)CN`, the LD50 is 310 mg/kg. For `CO[Si](CCCNCCN)(OC)OC` the value was 1900 mg/kg; for `CN(C)CCCNCCCN`, 1540 mg/kg; for `O=[N+]([O-])c1cccc(Cl)c1`, 300 mg/kg.

With `O=C(O)CC(O)C(=O)O` (stereo unspecified), the LD50 was 9300 mg/kg and 3200 mg/kg. The same measure for `CC(C)Nc1nc(Cl)nc(NC2CC2)n1`: 516 mg/kg; for `CC[N+](=O)[O-]`: 1080 mg/kg; for `O=C=NCc1cccc(CN=C=O)c1`: 3200 mg/kg. The same measure for `CC1OC(C)OC(C)O1` (stereo unspecified): 1530 mg/kg; for `CC(C)(C)c1ccc(CSc2cnn(C(C)(C)C)c(=O)c2Cl)cc1`: 570 mg/kg; for `CC(C)N(C(=O)SCC(Cl)=C(Cl)Cl)C(C)C`: 200 mg/kg. For `CC(C)c1nn(C(=O)NC(C)(C)C)c(=O)n1N` the value was 1020 mg/kg; for `CCCC(C)=O`, 1600 mg/kg. Turning to `CCCCOCC(C)O` (stereo unspecified), the LD50 amounted to 2500 mg/kg.

Take `Clc1cc(-c2cc(Cl)c(Cl)c(Cl)c2)cc(Cl)c1Cl`: the LD50 was found to be 4250 mg/kg.

`Oc1ccc(O)cc1` gave an LD50 of 302 mg/kg.

For `CCOC(=O)CC(O)(CC(=O)OCC)C(=O)OCC`, the LD50 was 5900 mg/kg.

Molecule `C=COCCCl` displayed an LD50 of 210 mg/kg. For `N#CCO` the value was 8 mg/kg.

As for `CCCCOP(C)(=O)CCC(C#N)OC(C)=O` (stereo unspecified), the LD50 worked out at 253 mg/kg. For `CCO[Si](CCC#N)(OCC)OCC` the value was 5600 mg/kg; for `Nc1c(Cl)c(F)nc(OCC(=O)O)c1Cl`, 2400 mg/kg; for `O=CC=Cc1ccccc1`, 2200 mg/kg.

For `Oc1c(Cl)cc(Cl)c(Cl)c1Cc1c(O)c(Cl)cc(Cl)c1Cl`, the LD50 was determined as 56 mg/kg. The same measure for `OCCc1ccccc1`: 1600 mg/kg. As to `CN(C)CCCN1c2ccccc2Sc2ccc(Cl)cc21`, the LD50 is 142 mg/kg and 143 mg/kg.

Consider `CN(Cc1cnc2nc(N)nc(N)c2n1)c1ccc(C(=O)N[C@@H](CCC(=O)O)C(=O)O)cc1`, for which the median lethal dose (LD50) was 135 mg/kg. Regarding `Cc1cccc(N=C=O)c1`, the LD50 is 2930 mg/kg. The same measure for `OCCCCO`: 1350 mg/kg; for `COc1nc(NC(C)C)nc(NC(C)C)n1`: 503 mg/kg. For `COc1ccc2c3c1O[C@H]1[C@@H](O)C=C[C@H]4[C@@H](C2)N(C)CC[C@@]341` the value was 427 mg/kg. For `CC1(C)[C@H](C(=O)O[C@H](C#N)c2cccc(Oc3ccccc3)c2)[C@@H]1C(Br)C(Br)(Br)Br` (stereo partly specified) the value was 99 mg/kg; for `N#CO`, 567 mg/kg and 582 mg/kg; for `CCCCOC(=O)c1ccccc1C(=O)OCCCC`, 6300 mg/kg. In turn, `CCC(C)NC1CCC(CC2CCC(NC(C)CC)CC2)CC1` (stereo unspecified) yielded an LD50 of 266 mg/kg. The same measure for `OCCOCCOCCO`: 17000 mg/kg; for `CC1=C(C)S(=O)(=O)CCS1(=O)=O`: 500 mg/kg. The same measure for `CCCCOCCOC(C)=O`: 1880 mg/kg; for `CCOP(=S)(OCC)Oc1ccc(Cl)cc1Cl`: 172 mg/kg; for `Nc1ccccc1N`: 510 mg/kg. The same measure for `COP(=S)(OC)Oc1ccc(S(=O)(=O)N(C)C)cc1`: 28 mg/kg; for `C[Si]1(CCC(F)(F)F)O[Si](C)(CCC(F)(F)F)O[Si](C)(CCC(F)(F)F)O1` (stereo unspecified): 180 mg/kg.

`CNc1ccccc1` gave an LD50 of 716 mg/kg. For `C1COCO1` the value was 3000 mg/kg. `COc1c(Cl)ccc(Cl)c1C(=O)O` had an LD50 of 757 mg/kg. For `CCN(CC)CCNC(=O)c1ccc(N)cc1` the value was 1510 mg/kg; for `O=C(O)c1cccc(C(=O)O)c1`, 10400 mg/kg.

For `CC(C)CC(=O)CC(C)C`, the LD50 was 5260 mg/kg.

`C/C(=N\C#N)N(C)Cc1ccc(Cl)nc1` came in with an LD50 of 146 mg/kg. For `C=C(Cl)Cl` the value was 80 mg/kg. The same measure for `CC(C)OC(=O)COc1ccc(Cl)cc1Cl`: 375 mg/kg; for `ClC1(Cl)C2(Cl)C3(Cl)C4(Cl)C(Cl)(Cl)C5(Cl)C3(Cl)C1(Cl)C5(Cl)C24Cl` (stereo unspecified): 235 mg/kg. The molecule `CCCCNCCCC` registered an LD50 of 189 mg/kg. The molecule `CCn1cc(C(=O)O)c(=O)c2ccc(C)nc21` came in with an LD50 of 1160 mg/kg. The same measure for `BrC(Br)Br`: 933 mg/kg. For `CCOP(=O)(NC(C)C)Oc1ccc(SC)c(C)c1` (stereo unspecified) the value was 2.7 mg/kg; for `Oc1ccccc1-c1ccccc1`, 718 mg/kg.

`CCNS(=O)(=O)C(F)(F)C(F)(F)C(F)(F)C(F)(F)C(F)(F)C(F)(F)C(F)(F)C(F)(F)F` showed an LD50 of 507 mg/kg.

`COc1ccccc1O` gave an LD50 of 520 mg/kg. For `COCC(=O)N(c1c(C)cccc1C)C(C)C(=O)OC` (stereo unspecified) the value was 566 mg/kg. The same measure for `CC(=O)Oc1ccc(C(c2ccc(OC(C)=O)cc2)c2ccccn2)cc1`: 4300 mg/kg; for `Cc1cc(Cl)ccc1OCC(=O)O`: 700 mg/kg.

Consider `CCCCCCCCCCCCOS(=O)(=O)O`, for which the LD50 came out at 977 mg/kg. The same measure for `Clc1cc(Cl)c(Cl)nc1Cl`: 1000 mg/kg; for `CC(CCl)OP(=O)(OC(C)CCl)OC(C)CCl` (stereo unspecified): 980 mg/kg; for `ClC1=C(Cl)C2(Cl)C3C(Cl)C(Cl)CC3C1(Cl)C2(Cl)Cl` (stereo unspecified): 200 mg/kg.

For `CCCCCOC(C)=O`, the LD50 stood at 6500 mg/kg. `CCCCC=O` displayed an LD50 of 4580 mg/kg. Turning to `Cc1nc(N(C)C)nc(OC(=O)N(C)C)c1C`, the LD50 stood at 100 mg/kg.

`CCCCNC(=O)OCC#CI` gave an LD50 of 1100 mg/kg. Turning to `CC(C#N)CCC#N` (stereo unspecified), the LD50 came to 170 mg/kg. For `CCOP(=S)(OCC)Oc1cc(C)nc(N(CC)CC)n1` the value was 140 mg/kg; for `O=C1OC(=O)C2C1C1(Cl)C(Cl)=C(Cl)C2(Cl)C1(Cl)Cl` (stereo unspecified), 2130 mg/kg. For `Oc1ccc(Cl)cc1` the value was 500 mg/kg; for `CCCC(O)C(CC)CO` (stereo unspecified), 1400 mg/kg.

For `Nc1nc[nH]n1`, the LD50 amounted to 1100 mg/kg. The same measure for `CC(C)c1cccc(C(C)C)c1N=C=Nc1c(C(C)C)cccc1C(C)C`: 200 mg/kg. `COP(=S)(OC)Oc1ccc([N+](=O)[O-])cc1Cl` displayed an LD50 of 284 mg/kg. For `CNS(=O)(=O)c1cc(OC)c(N)cc1OC` the value was 815 mg/kg; for `CC(C)(C#N)C(C)(C)C#N`, 27 mg/kg.

`CC1(C)C(C(=O)OC(C#N)c2cccc(Oc3ccccc3)c2)C1(C)C` (stereo unspecified) gave an LD50 of 66.7 mg/kg. The same measure for `CCN(CC)C(=O)SCc1ccc(Cl)cc1`: 920 mg/kg; for `CC(C)(C)CCCCCCCCCN`: 300 mg/kg; for `CCCOP(=O)(OCCC)Oc1ccc(SC)cc1`: 61 mg/kg.

In turn, `C=C(C)C(=O)O` displayed an LD50 of 1060 mg/kg. For `COc1cc(CNC(=O)CCCC/C=C/C(C)C)ccc1O` the value was 148 mg/kg; for `CC(C)N`, 111 mg/kg. For `CCOC(=O)CCl` the value was 50 mg/kg; for `O=S(=O)(O)c1ccc(Nc2nc(Nc3ccc(/C=C/c4ccc(Nc5nc(Nc6ccc(S(=O)(=O)O)cc6)nc(N(CCO)CCO)n5)cc4S(=O)(=O)O)c(S(=O)(=O)O)c3)nc(N(CCO)CCO)n2)cc1`, 5300 mg/kg; for `Cc1ccccc1S(N)(=O)=O`, 2400 mg/kg.
